The results in this text go back to PMC4853435, “A cell cycle kinase with tandem sensory PAS domains integrates cell fate cues” (Nature Communications, 2016).

Molecules are shown by their SMILES.

One test has as its target T1, CckA 197–691 (ΔPAS-A) (Caulobacter vibrioides, UniProt A0A0H3C8Q4).
T1 construct: residues 197-691 (PAS-B, DHp, CA, RD), His-tagged, E. coli, Ni-NTA
T1 sequence (A0A0H3C8Q4 197-691): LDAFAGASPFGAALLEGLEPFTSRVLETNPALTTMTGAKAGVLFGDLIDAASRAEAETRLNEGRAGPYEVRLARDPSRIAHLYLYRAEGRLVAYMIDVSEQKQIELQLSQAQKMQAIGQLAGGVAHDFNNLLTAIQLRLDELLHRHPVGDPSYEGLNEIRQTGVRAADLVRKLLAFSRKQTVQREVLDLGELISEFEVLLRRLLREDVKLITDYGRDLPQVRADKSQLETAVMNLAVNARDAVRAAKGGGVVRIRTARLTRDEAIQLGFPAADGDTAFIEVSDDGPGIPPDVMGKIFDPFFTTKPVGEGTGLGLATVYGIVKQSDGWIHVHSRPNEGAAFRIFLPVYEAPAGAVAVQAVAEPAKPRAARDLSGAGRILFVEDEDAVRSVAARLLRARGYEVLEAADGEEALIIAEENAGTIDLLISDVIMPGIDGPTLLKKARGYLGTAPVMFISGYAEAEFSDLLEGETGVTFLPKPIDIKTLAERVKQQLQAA
Description: autophosphorylation with [gamma-32P]ATP, nitrocellulose capture, phosphorimaging. Format: biochemical.

The target in test [1] is T2, CckA 70–295 (ΔDHp-ΔCA-ΔRD) (Caulobacter vibrioides, UniProt A0A0H3C8Q4).
T2 construct: residues 70-295 (PAS-A, PAS-B), pJAB41 in pET28b(+), His-tagged, E. coli, Ni-NTA; immobilised on SPR chip
T2 sequence (A0A0H3C8Q4 70-295): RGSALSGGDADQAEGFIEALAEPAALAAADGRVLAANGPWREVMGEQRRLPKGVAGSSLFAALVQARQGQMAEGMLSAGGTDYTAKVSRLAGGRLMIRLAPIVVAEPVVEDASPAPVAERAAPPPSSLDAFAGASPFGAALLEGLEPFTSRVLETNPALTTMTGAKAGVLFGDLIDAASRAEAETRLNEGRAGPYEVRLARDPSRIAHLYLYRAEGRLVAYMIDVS
The experiment in a line: SPR (Biacore T200, CckA variant amine-coupled to CM5 chip). The class given is binding. The following applies: 50 mM HEPES pH 8, 200 mM KCl, 5 mM MgCl2, 25 °C.

For a further test, the target named is T3, CckA 70–544 (ΔRD) (Caulobacter vibrioides, UniProt A0A0H3C8Q4).
T3 construct: residues 70-544 (PAS-A, PAS-B, DHp, CA), receiver domain removed, His-tagged, E. coli, Ni-NTA; immobilised on SPR chip
T3 sequence (A0A0H3C8Q4 70-544): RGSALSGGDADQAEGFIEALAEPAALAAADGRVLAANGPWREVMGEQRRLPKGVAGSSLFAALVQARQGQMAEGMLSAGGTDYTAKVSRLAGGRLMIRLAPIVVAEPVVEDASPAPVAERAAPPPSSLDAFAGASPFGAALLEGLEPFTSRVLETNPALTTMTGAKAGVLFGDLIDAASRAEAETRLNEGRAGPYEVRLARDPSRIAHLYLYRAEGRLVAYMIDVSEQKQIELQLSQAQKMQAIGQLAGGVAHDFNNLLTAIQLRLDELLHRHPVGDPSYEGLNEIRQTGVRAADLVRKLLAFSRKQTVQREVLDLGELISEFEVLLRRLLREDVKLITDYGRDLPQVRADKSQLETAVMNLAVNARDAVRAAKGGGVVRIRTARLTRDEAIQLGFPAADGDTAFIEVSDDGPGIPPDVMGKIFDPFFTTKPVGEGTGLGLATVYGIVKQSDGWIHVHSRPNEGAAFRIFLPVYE
The test is described as above. The class given is binding. The following applies: 50 mM HEPES pH 8, 200 mM KCl, 5 mM MgCl2, 25 °C.

In a further test the target is T4, CckA 70–691 (WT) (Caulobacter vibrioides, UniProt A0A0H3C8Q4).
T4 construct: cytosolic region 70-691 (PAS-A, PAS-B, DHp, CA, RD), transmembrane helices removed, N-terminal His6 tag, E. coli, Ni-NTA
T4 sequence (A0A0H3C8Q4 70-691): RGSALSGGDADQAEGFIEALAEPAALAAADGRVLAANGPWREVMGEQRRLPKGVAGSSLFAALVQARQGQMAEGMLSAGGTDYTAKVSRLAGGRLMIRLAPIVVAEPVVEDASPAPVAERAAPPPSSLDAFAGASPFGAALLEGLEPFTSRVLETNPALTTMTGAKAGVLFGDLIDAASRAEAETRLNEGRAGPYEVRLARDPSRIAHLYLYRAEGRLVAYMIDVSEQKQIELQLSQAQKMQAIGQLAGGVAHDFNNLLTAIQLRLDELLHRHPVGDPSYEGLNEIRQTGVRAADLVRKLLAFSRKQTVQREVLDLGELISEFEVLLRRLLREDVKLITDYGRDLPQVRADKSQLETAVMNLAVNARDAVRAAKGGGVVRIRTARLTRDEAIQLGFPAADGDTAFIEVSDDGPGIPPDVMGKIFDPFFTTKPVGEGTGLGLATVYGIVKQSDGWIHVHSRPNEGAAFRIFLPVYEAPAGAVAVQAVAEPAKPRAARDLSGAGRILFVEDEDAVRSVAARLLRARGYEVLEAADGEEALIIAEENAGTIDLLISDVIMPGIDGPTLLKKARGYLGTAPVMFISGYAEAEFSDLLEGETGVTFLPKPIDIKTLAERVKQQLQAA
Description: autophosphorylation with [gamma-32P]ATP, nitrocellulose capture, phosphorimaging. The class given is biochemical.

The next test deals with T5, CckA 70–378 (ΔCA-ΔRD) (Caulobacter vibrioides, UniProt A0A0H3C8Q4).
T5 construct: residues 70-378 (PAS-A, PAS-B, DHp), His-tagged, E. coli, Ni-NTA; immobilised on SPR chip
T5 sequence (A0A0H3C8Q4 70-378): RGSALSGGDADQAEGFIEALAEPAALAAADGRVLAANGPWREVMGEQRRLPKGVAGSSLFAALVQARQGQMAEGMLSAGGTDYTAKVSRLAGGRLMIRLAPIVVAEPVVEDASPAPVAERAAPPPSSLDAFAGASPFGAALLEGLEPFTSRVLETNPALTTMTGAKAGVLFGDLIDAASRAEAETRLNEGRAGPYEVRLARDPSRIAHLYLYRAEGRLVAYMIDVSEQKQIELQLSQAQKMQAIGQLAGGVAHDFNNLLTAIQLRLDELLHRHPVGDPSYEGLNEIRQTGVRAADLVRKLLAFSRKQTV
The experiment in a line: SPR (Biacore T200, CckA variant amine-coupled to CM5 chip). The class given is binding. The following applies: 50 mM HEPES pH 8, 200 mM KCl, 5 mM MgCl2, 25 °C. On the technique in general: In SPR one partner is held on a chip, and binding of the other changes the refractive index at the surface.

Test [2] concerns the target T6, CckA 197–544 (ΔPAS-A-ΔRD) (Caulobacter vibrioides, UniProt A0A0H3C8Q4).
T6 construct: residues 197-544 (PAS-B, DHp, CA), His-tagged, E. coli, Ni-NTA; immobilised on SPR chip
T6 sequence (A0A0H3C8Q4 197-544): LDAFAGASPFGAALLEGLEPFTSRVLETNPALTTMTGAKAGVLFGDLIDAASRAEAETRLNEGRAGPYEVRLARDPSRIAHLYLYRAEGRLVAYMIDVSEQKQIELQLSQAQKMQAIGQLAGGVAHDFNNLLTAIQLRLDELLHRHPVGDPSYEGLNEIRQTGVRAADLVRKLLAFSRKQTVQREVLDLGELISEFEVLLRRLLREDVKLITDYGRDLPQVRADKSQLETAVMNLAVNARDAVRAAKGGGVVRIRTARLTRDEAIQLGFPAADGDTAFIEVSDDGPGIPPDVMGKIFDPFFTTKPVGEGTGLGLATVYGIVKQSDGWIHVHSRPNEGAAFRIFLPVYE
The description is as above. Format: binding. The following applies: 50 mM HEPES pH 8, 200 mM KCl, 5 mM MgCl2, 25 °C.

Turning to `Nc1nc2c(ncn2[C@@H]2O[C@@H]3COP(=O)(O)O[C@H]4[C@@H](O)[C@H](n5cnc6c(=O)[nH]c(N)nc65)O[C@@H]4COP(=O)(O)O[C@H]3[C@H]2O)c(=O)[nH]1` [c-di-GMP], the concentration for half-maximal inhibition (IC50) came to 22 µM on CckA 197–691 (ΔPAS-A) and 27 µM on CckA 70–691 (WT). In addition, the “SPR (Biacore T200, CckA variant amine-coupled to CM5 chip)” value in test [1] is reported as “Each construct still displayed concentration dependence in response to c-di-GMP”; at CckA 70–544 (ΔRD) it was “The concentration-dependent response we observed demonstrates that c-di-GMP directly binds CckA”; at CckA 70–378 (ΔCA-ΔRD), “removal of the ATP-binding CA domain resulted in a minor reduction in c-di-GMP binding”; in test [2], “Each construct still displayed concentration dependence in response to c-di-GMP”.

As usually defined, the IC50 is the concentration that inhibits the measured activity by half. Low readings indicate higher potency, high ones lower potency.
